The results in this text go back to PubChem BioAssay (NCI).

Test systems include HCC-2998 colon; HOP-62 NSCLC; MDA-MB-435; MOLT-4 leukemia; NCI-H23 lung; OVCAR-3 ovarian; RPMI-8226 leukemia; SF-268 CNS; UACC-62 melanoma; SK-MEL-2 melanoma.
Assay in all cases: inhibition of tumour cell growth, NCI panel, 48 h

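All cell lines were grown in 96-well plates and treated with compound for 48 hours. At the GI50, growth is halved. Definition used: TGI = concentration required for complete inhibition of growth.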 Where a SMILES comes first, the peptide text is derived from it. The star is where a group is joined. Boc = CC(C)(C)OC(=O)*

`COc1cccc(/C=C2\S/C(=N/Nc3nc(-c4ccc([N+](=O)[O-])cc4)cs3)NC2=O)c1O`: the TGI with HCC-2998 colon was 33.7 µM; in the test with HOP-62 NSCLC it was 34.1 µM; in the test with MDA-MB-435 it was 42.2 µM; in the test with MOLT-4 leukemia, more than 100 µM; in the test on NCI-H23 lung, 33.5 µM; with OVCAR-3 ovarian, 30.1 µM. Also, the TGI with RPMI-8226 leukemia was 35.2 µM; in the test on SF-268 CNS, 21.8 µM.
Consider `CC1=C(C)SC(=C2Sc3nc(O)[nH]c(=O)c3S2)S1`, for which the TGI with HCC-2998 colon, with HOP-62 NSCLC, in the test with MDA-MB-435, in the test with MOLT-4 leukemia, in the test on NCI-H23 lung and with OVCAR-3 ovarian was more than 100 µM each time. Further, the TGI in the test with RPMI-8226 leukemia is more than 100 µM; in the test with SF-268 CNS, more than 100 µM; in the test with UACC-62 melanoma, 59.4 µM.
As for `COC(=O)[C@H](Cc1ccc(O)cc1)NC(=O)[C@H](Cc1ccc(O)cc1)NC(=O)OC(C)(C)C` (Boc-Tyr-Tyr-OMe), the TGI with HCC-2998 colon, in the test on HOP-62 NSCLC, in the test on NCI-H23 lung, in the test with OVCAR-3 ovarian, in the test with SF-268 CNS and with UACC-62 melanoma was more than 100 µM each time.
Consider `CCOC1CC(C)N(C(=O)c2ccccc2)O1` (stereo not drawn), for which the TGI in the test with HCC-2998 colon, in the test with HOP-62 NSCLC, in the test with MDA-MB-435, in the test with MOLT-4 leukemia, in the test on NCI-H23 lung and with OVCAR-3 ovarian was more than 100 µM in each case. In addition, the TGI with SF-268 CNS and with UACC-62 melanoma was more than 100 µM each time.
`c1ccc2c(c1)OC(N1CCCC1)c1cnc(N3CCOCC3)nc1-2` (stereo not drawn): the TGI in the test with HOP-62 NSCLC is more than 100 µM; with MDA-MB-435 it was more than 100 µM; in the test on MOLT-4 leukemia, more than 100 µM; in the test on NCI-H23 lung, 30.9 µM; in the test with OVCAR-3 ovarian it was more than 100 µM; in the test on RPMI-8226 leukemia it was 74.7 µM. The TGI in the test with SF-268 CNS and in the test with UACC-62 melanoma was more than 100 µM in each case.
Turning to `Cc1n(Cc2ccccc2)nc2sc(N)n[n+]12`, the TGI in the test on HOP-62 NSCLC, with MDA-MB-435, in the test on MOLT-4 leukemia, with NCI-H23 lung, in the test with OVCAR-3 ovarian and in the test with RPMI-8226 leukemia was more than 100 µM throughout. Moreover, the TGI in the test on SF-268 CNS, with SK-MEL-2 melanoma and with UACC-62 melanoma was more than 100 µM in each case.
For `NC(=O)NC12CC3CC(CC(F)(C3)C1)C2`, the TGI in the test on HCC-2998 colon, in the test on HOP-62 NSCLC, in the test with MOLT-4 leukemia, in the test with NCI-H23 lung, in the test with OVCAR-3 ovarian and in the test on RPMI-8226 leukemia was more than 100 µM each time. In addition, the TGI in the test on SK-MEL-2 melanoma and in the test with UACC-62 melanoma was more than 100 µM throughout.
For `O=C(CC(Cl)=C(Cl)Cl)c1ccccc1`, the TGI in the test on HOP-62 NSCLC was more than 100 µM; in the test on MDA-MB-435, more than 100 µM; with MOLT-4 leukemia, 28.6 µM; in the test with NCI-H23 lung, more than 100 µM; in the test on OVCAR-3 ovarian, 81.4 µM; in the test on RPMI-8226 leukemia, 41.9 µM. The TGI in the test on SF-268 CNS, in the test on SK-MEL-2 melanoma and in the test on UACC-62 melanoma was more than 100 µM in each case.
With `O=c1oc2c(Cl)cc(Cl)cc2cc1C1=CSC2=NCCN12`, the TGI in the test on HOP-62 NSCLC is more than 100 µM; in the test with MDA-MB-435 it was more than 100 µM; in the test on MOLT-4 leukemia, more than 100 µM; in the test on NCI-H23 lung, more than 100 µM; in the test on OVCAR-3 ovarian, 92.9 µM; with RPMI-8226 leukemia, more than 100 µM. Also, the TGI in the test with SK-MEL-2 melanoma and with UACC-62 melanoma was more than 100 µM throughout.
On to `CN1CC2CN(Cc3ccccc3)CCN2c2cccnc21` (stereo not drawn), for which the TGI in the test on HOP-62 NSCLC, in the test on MDA-MB-435, with MOLT-4 leukemia, in the test on NCI-H23 lung, in the test on OVCAR-3 ovarian and in the test with RPMI-8226 leukemia was more than 100 µM throughout. The TGI with SF-268 CNS, with SK-MEL-2 melanoma and in the test with UACC-62 melanoma was more than 100 µM throughout.
As to `CC(=O)Oc1ccc2c3c1O[C@H]1[C@H](O)CC[C@@]4(O)[C@@H](C2)N(C)CC[C@]314`, the TGI in the test on HOP-62 NSCLC, in the test on MDA-MB-435, in the test on MOLT-4 leukemia, in the test on NCI-H23 lung, with OVCAR-3 ovarian and in the test on RPMI-8226 leukemia was more than 100 µM in each case. The TGI with SF-268 CNS, in the test with SK-MEL-2 melanoma and in the test with UACC-62 melanoma was more than 100 µM each time.
Turning to `Cc1ccc2c(/C=C/c3ccc(N(C)C)cc3)ccc(C(C)C)cc1-2`, the TGI with HOP-62 NSCLC, in the test with MDA-MB-435, with MOLT-4 leukemia, with NCI-H23 lung, with OVCAR-3 ovarian and in the test with RPMI-8226 leukemia was more than 100 µM in each case. In addition, the TGI with SF-268 CNS, with SK-MEL-2 melanoma and in the test on UACC-62 melanoma was more than 100 µM throughout.
In the case of `COC(=O)C12OC3CO[Si](C(C)C)(C(C)C)O[Si](C(C)C)(C(C)C)OC3C1Oc1nc(=O)ccn12` (stereo not drawn), the TGI is 32.2 µM in the test on HOP-62 NSCLC; 31.3 µM in the test with MDA-MB-435; 30.8 µM in the test on MOLT-4 leukemia; 29 µM in the test on NCI-H23 lung; 29.3 µM with OVCAR-3 ovarian; 30.8 µM in the test on RPMI-8226 leukemia. In addition, the TGI was 24.6 µM in the test on SF-268 CNS, 31.6 µM in the test on SK-MEL-2 melanoma and 27.4 µM in the test with UACC-62 melanoma.
In the case of `CCOc1cc2c(c(OCC)c1O)CC[C@@H]1[C@@H]2CC[C@]2(C)[C@@H](O)CC[C@@H]12`, the TGI with HOP-62 NSCLC was 40.5 µM; in the test with MDA-MB-435, 3.05 µM; in the test on MOLT-4 leukemia it was more than 100 µM; with NCI-H23 lung, 41.4 µM; in the test on OVCAR-3 ovarian, 3.08 µM; with RPMI-8226 leukemia it was 31.1 µM. For the same molecule, the results for the TGI in the test on SF-268 CNS, with SK-MEL-2 melanoma and with UACC-62 melanoma were 52.1 µM, 83.7 µM and 27.5 µM, respectively. In addition, the GI50 with OVCAR-3 ovarian is 89.6 nM.
As for `O=C(N/N=C/c1ccccc1)c1cccc2nc3ccccc3nc12`, the TGI is more than 45.7 µM in the test with HOP-62 NSCLC; more than 100 µM in the test on MDA-MB-435; more than 100 µM in the test with MOLT-4 leukemia; more than 69.2 µM in the test with NCI-H23 lung; more than 100 µM in the test on OVCAR-3 ovarian; more than 100 µM with RPMI-8226 leukemia. Besides, the TGI in the test with SF-268 CNS, in the test on SK-MEL-2 melanoma and in the test on UACC-62 melanoma was more than 100 µM throughout.
